In brackets after ≈: the same amount, converted by molar mass. Read-outs that look alike come from different tables or passages of the source.
Columns and labels:
Type in all cases: physicochemical
[1] = Storage stability at 40° C. for 20 days, purity and content by HPLC; conditions: for Content: external standard method; for Purity: internal standard method
Procedure: Agomelatine crystalline forms VI and VIII (obtained through embodiment 2) are each placed in thermostatic containers at a temperature of 40° C. and stored for 20 days, with the stability of these samples being studied using the method of High Performance Liquid Chromatography.
1. Purity Measurement of the Sample
Chromatographic conditions: Octadecyl silane chemically bonded silica is used as packing; a mixed solution of 10 mmol/L phosphate buffer (adjusted to pH 7.0 with sodium hydroxide) and acetonitrile in the ratio 2:7 by volume acts as the mobile phase; column temperature 40° C.; and detection wavelength 220 nm. Purity is measured using an internal standard method.
In the mobile phase, crystalline forms VI and VIII are distributed into 1 mg/mL solutions, 10 μL of each of which are then passed into a liquid chromatograph, with their chromatograms being recorded.
The reference sample purity measurement method was used, with measurements being made using an […], the results can be seen in Table I.

[2] = Measurement of water solubility (HPLC, external standard); conditions: for solubility: water
From the text: 3. Measurement of Water Solubility
The HPLC method was used to determine water solubility, with measurements being made using an external standard method.

[3] = Determination of crystalline stability (pharmacopoeia stability assessment method); set-up: key to Crystalline stability, long term testing (6 months) / Crystalline stability, long term testing (9 months) / Crystalline stability, long term testing (12 months) / Crystalline stability, influencing factor: high temperature / Crystalline stability, influencing factor: illumination / Crystalline stability, influencing factor: high humidity / Crystalline stability, accelerated testing: √—stable; x—unstable; conditions: for Crystalline stability, influencing factor: high temperature: 60° C.; for Crystalline stability, influencing factor: high temperature / Crystalline stability, influencing factor: high humidity / Crystalline stability, influencing factor: illumination: exposed for 10 days; for Crystalline stability, influencing factor: high humidity: 92.5% RH; for Crystalline stability, influencing factor: high humidity / Crystalline stability, long term testing (6 months) / Crystalline stability, long term testing (9 months) / Crystalline stability, long term testing (12 months): 25° C.; for Crystalline stability, accelerated testing: hermetically sealed for 6 months, 30° C., 65% RH; for Crystalline stability, long term testing (6 months) / Crystalline stability, long term testing (9 months) / Crystalline stability, long term testing (12 months): hermetically sealed, 60% RH
From the text: 4. Determination of Crystalline Stability

[4] = after storage in thermostatically controlled containers at 40° C. for 20 days
[5] = compared with crystalline form VI

SMILES | Content [1, 4] [%] | Purity [1, 4] [%] | Content ([1]; before storage) [%] | Purity ([1]; before storage) [%] | solubility ([2]; read-out: Solubility) [µg/mL] | Crystalline stability, influencing factor: high temperature [3] | Crystalline stability, influencing factor: high humidity [3] | Crystalline stability, influencing factor: illumination [3] | Crystalline stability, accelerated testing [3] | Crystalline stability, long term testing (6 months) [3] | Crystalline stability, long term testing (9 months) [3] | Crystalline stability, long term testing (12 months) [3] | Crystal transition under extreme conditions ([3]; high temperature of 60° C. for 10 days) | Solubility compared with crystalline form VI [2, 5] | solubility [2] [µg/mL] | Stability under high temperature compared with crystalline form VI [3, 5]
COc1ccc2cccc(CCNC(C)=O)c2c1 [Crystalline form VI, N-[2-(7-methoxy-1-naphthyl)ethyl]acetamide, reference compound] | 99.8 | 99.6 | 100.1 | 99.7 | 336 (≈ 1380 µM) | x* | √ | √ | √ | √ | √ | x | small amounts of crystal transition can occur | – | – | –
COc1ccc2cccc(CCNC(C)=O)c2c1 [Form VIII, N-[2-(7-methoxy-1-naphthyl)ethyl]acetamide] | 100.1 | 99.7 | 100.3 | 99.8 | – | √* | √ | √ | √ | √ | √ | √ | – | comparable solubility | 335 (≈ 1380 µM) | greater stability under high temperature
